Data set [1] in a line: UV-Vis absorption and fluorescence spectroscopy of the Oxazine library. The class given is physicochemical. To be noted: for Extinction coefficient: Beer's Law plots; for Quantum yield: relative, references Oxazine 1, Oxazine 170, Rhodamine 101. The method, boiled down:
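Absorbance measured at room temperature in 1-cm quartz cuvette, reference corrected; extinction coefficient from Beer's Law plots of absorbance vs concentration. Fluorescence spectra corrected for PMT response; relative quantum yields averaged over multiple measurements against Oxazine 1, Oxazine 170 and Rhodamine 101 references.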

The subject of another data set is nerve and muscle tissue. Description: Ex vivo tissue staining nerve-specificity screening. An excerpt:
Oxazine derivative library nerve-specificity screening. All 64 Oxazine derivatives were screened for nerve specificity using a previously described ex vivo tissue staining assay (Gibbs, S. L., et al., PloS one 8, e73493 (2013)). Ex vivo nerve and muscle tissue fluorescence intensities varied, with many compounds showing minimal nerve or muscle tissue fluorescence above control autofluorescence following Oxazine derivative staining. […] All Oxazine derivatives were further screened for nerve-specificity in vivo using both direct and systemic administration strategies. The direct administration strategy enabled quantification of nerve-specificity and contrast following fluorophore contact with the nerves and surrounding tissues without the requirement of BNB penetration, providing the most similar comparison to ex vivo nerve-specificity screening. The systemic administration screening studies required not only nerve specificity, but also adequate biodistribution and BNB penetration to generate SBR for visualization.

Data set [2] has as its system murine brachial plexus and sciatic nerves. Briefly: Nerve-specificity screening using direct/topical administration. Format: in vivo, mouse. To be noted: 125 μM, imaged 30 minutes after staining. The method in brief: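 Oxazine fluorophores (125 μM in 10% DMSO/5% Kolliphor/65% serum/20% PBS) applied topically to exposed murine nerve for 5 min, then saline-irrigated. Fluorescence imaged 30 min later (620/60 nm excitation, 700/75 nm emission); nerve-to-muscle and nerve-to-adipose ratios taken from co-registered regions of interest, blinded.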

The test system is the same in data set [3]. Description: Nerve-specificity screening using systemic administration. Format: in vivo. To be noted: IV, 200 nmol, 4 hours prior to imaging.
Data set [4] concerns mouse brachial plexus nerves. Briefly: Nerve imaging at depth under muscle tissue. The class given is in vivo. As for the experimental part: Nerve imaging at depth studies using a model Oxazine derivative. Oxazine 4 and LGW01-08 were used to stain mouse brachial plexus nerves using both direct and systemic administration methods using the same dose and administration methods previously described. The ability to image the brachial plexus nerve at depth was assessed under varying thicknesses of mouse muscle tissue. Muscle tissue was resected from the peritoneal muscle layer and measured for thickness. One and two layers of resected peritoneal muscle tissue was placed over the stained nerves, providing one and two mm thick homogenous tissue through which the stained nerve tissue was imaged. The same muscle tissue was used to cover the stained nerves from both fluorophores with care taken to orient the muscle in the same way to ensure equivalent comparison. The imaging system configuration was changed to reflect the 700 nm channel in clinically relevant FGS systems (Tummers et al., Eur J Surg Oncol 40, 850-858 (2014); Troyan et al., Ann Surg Oncol 16, 2943-2952 (2009); Ashitate et al., The Journal of surgical research 176, 7-13 (2012); Verbeek et al., The Journal of urology 190, 574-579 (2013); Hillary et al., Langenbecks Arch Surg 403, 111-118 (2018); and Mery et al., Oncotarget 8, 109559-109574 (2017). For fluorescence excitation, the PhotoFluor II was filtered with a 650±22.5 nm bandpass excitation filter. The resulting fluorescence was collected with a 720±30 nm bandpass emission filter for image collection. Camera exposure times ranged from 0.025-4 s for fluorescence image collection.
Image analysis of intraoperative nerve contrast. Custom written MatLab code was used to analyze the tissue specific fluorescence where regions of interest (ROIs) were selected on the nerve, muscle and adipose tissue using the white light images, but blinded to the fluorescence images. These ROIs were then analyzed on the co-registered, matched fluorescence images permitting assessment of the mean tissue intensities as well as the nerve to muscle (N/M) and nerve to adipose (N/A) ratios. Fluorescence intensity measurements were divided by the exposure time to obtain normalized intensity per second measurements. Mean nerve to background tissue ratios (N/M and N/A) were calculated for each Oxazine derivative. For nerve imaging at depth image analysis, fluorescent line profiles and 3-D intensity topographical plots were generated in ImageJ using the plot profile and surface plot functions, respectively. The line profiles were background and exposure time corrected by dividing by the exposure time of each image and subtracting the average intensity of background pixels from the entire line profile. […]

The conditions of data set [5]: reported nerve-specific fluorophores; cited from earlier work.

For the molecule `CC/N=c1/cc2oc3cc4c(cc3nc-2cc1C)C(C)=CC(C)(C)N4` [LGW01-44, (Z)—N-(2,2,4,8-tetramethyl-1,2-dihydro-9H-pyrido[3,2-b]phenoxazin-9-ylidene)ethanaminium], in data set [1], the “Max Abs” value was determined as 648 nm, the “Max Em” value is recorded as 664 nm, the “Max Ex” value was determined as 650 nm and the Extinction coefficient is 40124 M⁻¹ cm⁻¹. This molecule showed a Quantum yield in data set [1] of 21.63%. Further, the “ex vivo nerve specificity (N/M SBR vs unstained control group)” value with nerve and muscle tissue was “significantly higher N/M SBR compared to the unstained control group”. In addition, the “nerve specificity (N/M contrast vs control group) via direct administration” value in data set [2] was “positive nerve specificity”. In addition, the “nerve specificity / nerve contrast (N/M vs control group) following systemic administration” value in data set [3] is listed as “negative for nerve contrast”.

For the molecule `CCN=c1cc2oc3cc(NCC)c(C)cc3nc-2cc1C.[O-][Cl+3]([O-])([O-])O` [OX-4, reference compound], in data set [1], the “Max Abs” value was determined as 618 nm, the “Max Em” value is 634 nm, the “Max Ex” value was determined as 620 nm and the Extinction coefficient was determined as 77156 M⁻¹ cm⁻¹. Moreover, the Quantum yield in data set [1] came out at 38.37%. Also, the “ex vivo nerve specificity (N/M SBR vs unstained control group)” value in the data set with nerve and muscle tissue was “lacked nerve-specificity ex vivo”. Moreover, the “width of smallest nerve branches distinguished under muscle tissue” value in data set [4] (direct administration, under 1 mm of muscle tissue) is “did not possess the ability to resolve smaller branches”. In data set [4] (following both systemic and direct administration, 700 nm channel filters), the “thickness of muscle tissue under which nerve tissue could be identified” value is 1 mm. In addition, the emission wavelength maximum in data set [5] is 635 nm.

Values taken from patent US11492359B2, “Near-infrared nerve-sparing fluorophores” (OREGON HEALTH & SCIENCE UNIVERSITY, priority 2018, dated 2022).
